Data taken from patent US10759843B2, “Method and pharmaceutical composition for use in the treatment of cancer” (priority 2012, dated 2020).
Non-standard residues stand in square brackets, D forms with d. Residues, ends and D or L forms follow the SMILES beside them.

Legend:
cancer cell lines = test: PCD induction in cancer cell lines (whole panel of Table 1); format: cell-based; conditions: cancer cell lines of Table 1, Annexin V labeling
Procedure: (§1) We used Annexin V-FITC (BD Biosciences) for the assessment of phosphatidylserine (PS) exposure. Data analysis was carried out in a FACSCanto II (BD Biosciences) on the total cell population (10,000 cells). Data were analyzed using FlowJo software (TreeStar).

primary cancer cells = test: PCD induction in primary cancer cells (whole panel of Table 2); format: cell-based; conditions: primary cancer cells (Table 2)
[1] = test system: B cells isolated from CLL patients; test: PCD (phosphatidylserine exposure, Annexin-V-FITC, flow cytometry) in B cells from CLL patients; format: cell-based, human
Text: (§2) After authorized consent forms fresh blood samples will be collected from CLL patients diagnosed according to classical morphological and immunophenotypic criteria at Pitié-Salpêtrière Hospital (Service d'Hématologie Biologique). Normal B lymphocytes will be obtained from EFS (Etablisement Français du Sang). The Institutional Ethics Committee at Pitie-Salpetriere Hospital approved the present study. Mononuclear cells were purified from blood samples using a standard Ficoll-Hypaque gradient, and B cells were positively or negatively selected by magnetic beads coupled to anti-CD19 monoclonal antibody (positive selection) or to anti-CD16, CD3, and CD14 monoclonal antibodies (negative depletion) (Miltenyi Biotech). No changes were found in the cell death response of positively or negatively selected cells. Purified B-lymphocytes were cultured in complete medium (RPMI 1640 medium supplemented with 10% fetal calf serum, 2 mM L-glutamine, and 100 U/ml penicillin-streptomycin). Unless specified, reagents were from Sigma-Aldrich.
To induce cell death B-lymphocytes were cultured 1 h with the TSP-1 derived peptide 4N1K (300 μM; sequence KRFYVVMWKK, SEQ ID NO:1), the negative control peptide 4NGG (300 μM; sequence KRFYGGMWKK, SEQ ID NO:2), the newly developed peptide PKHB1 (150 μM; sequence (D)K-R-F-Y-[…]-M-W-(D)K) (formula I) or an anti-CD47 mAb (in soluble conditions or in immobilized precoated plates; 5 μg/ml; clone B6H12). Alternatively, B-cells were pre-treated for 30 min before the induction of cell death with the calcium chelator BAPTA-AM (20 μM), the caspase-inhibitor Z-VAD.fmk (50 μM).
as §1

normal B-lymphocytes = test: PCD (Annexin-V-FITC) in normal B-lymphocytes; format: cell-based, human
Text: as §2, with “Sigma-Aldrich. […]” for “Sigma-Aldrich.”
(§3) We used Annexin V-FITC (BD Biosciences) for the assessment of phosphatidylserine (PS) exposure. […] Data were analyzed using FlowJo software (TreeStar).

[2] = test system: CD19^+/CD5^− (residual B-cells); test: Cell death in residual B-cells of CLL patients (flow cytometry); format: cell-based, human; conditions: n=8 patients (FIG. 6C)
Procedure: FIG. 6A-D. FIG. 6(A) B cells isolated from CLL patients were left untreated (control) or cultured 1 h in the presence of 4N1K or the 4N1K-derivative peptide PKHB-1 at the indicated concentration. The percentage of cells that expose phosphatidylserine (measured with Annexin-V-FITC) was recorded and expressed as a plot. Data are the means of eight independent experiments. FIG. 6(B) In a similar experiment B-lymphocytes from 14 different CLL patients, including individuals with unmutated IGHV, complex karyotype and dysfunctional TP53, were left untreated (control) or cultured 1 h in the presence of 4N1K (300 μM) or the 4N1K-derivative peptide PKHB-1 (150 μM). PCD was measured by Annexin-V-FITC labelling in a flow cytometer. FIG. 6(C) Cell death was determined as described in A in 4N1K or PKHB1-treated CD19^+/CD5^− (residual B-cells) and CD19^+/CD5^+ B-lymphocytes (CLL cells) identified by flow cytometry from each CLL patient. Data are presented as the mean±s.d. (n=8 patients). FIG. 6(D) Cell death was measured by Annexin V-positive staining in 4N1K or PKHB1-treated CLL cells pre-incubated or not with the intracellular calcium chelator BAPTA-AM. Data are presented as the mean±S.D. (n=10 patients).
as §3

MEC-1 cells = test: Localized CLL xenograft model (MEC-1 cells subcutaneously in NSG mice); format: in vivo; conditions: 400 μg intraperitoneally three times per week
Procedure: 3×10^6 MEC-1 cells were injected subcutaneously into NOD scid gamma (NSG) mice (Charles River). When the tumor volume reached 0.1 cm^3, mice were injected intraperitoneally three times per week with 4NIK or PKHB1 (400 μg in 200 μl PBS). Tumor size was measured every 2-3 days with a calliper and tumor volume, calculated using the formula (length×width^2)/2, was expressed as mm^3. Alternatively, at the end of treatment mice were injected into the sinus retro-orbital with XenoLight RediJect 2-DG-750 Probe (Caliper) to visualize tumor cell glucose uptake, which reflects cell proliferation. Fluorescence was measured by In vivo imaging system FX Pro (Kodak) and pictures were analysed with the Carestream MI software.

[3] = Peptide stability in human serum, HPLC; format: in vitro ADME
Procedure: FIG. 8: 4N1K and PKHB1 peptides stability were evaluated in human serum at 37° C. for 6 h. The relative concentrations of the remaining soluble peptides were analyzed by HPLC, by the integration of the absorbance at 220 nm as a function of retention time.

Molecule: KRFYGGMWKK [4NGG, negative soluble control peptide, 4N1K mutated in two amino acids, reference compound]
- cell death / caspase-independent PCD induction (in words) (cancer cell lines): inefficient
- caspase-independent PCD induction (in words) (primary cancer cells): inefficient
- PCD induction in CLL primary cells (in words) ([1]; soluble peptide or mAb (FIG. 1)): unable to induce PCD

Molecule: CSCC[C@H](NC(=O)[C@@H](NC(=O)[C@@H](NC(=O)[C@H](Cc1ccc(O)cc1)NC(=O)[C@H](Cc1ccccc1)NC(=O)[C@H](CCCNC(=N)N)NC(=O)[C@@H](N)CCCCN)C(C)C)C(C)C)C(=O)N[C@@H](Cc1c[nH]c2ccccc12)C(=O)N[C@@H](CCCCN)C(=O)N[C@H](CCCCN)C(=O)O [PKHB1, (D)K-R-F-Y-V-V-M-W-K-(D)] (H-KRFYVVMWK[dK]-OH)
- efficiency compared with 4N1K ([1]; B cells isolated from CLL patients, 1 h, indicated concentrations (FIG. 6A)): better efficiency than the 4N1K peptide
- effect of pre-treatment with calcium chelator BAPTA-AM on peptide-mediated PCD ([1]; BAPTA-AM 20 μM before PCD induction (FIG. 5, FIG. 6D)): significantly decreased
- cell death of CD19^+/CD5^+ tumor cells ([1]; CD19^+/CD5^+ CLL cells, n=8 patients (FIG. 6C)): significantly killed
- cytotoxicity in normal B-lymphocytes (normal B-lymphocytes): not in normal B-lymphocytes
- cell death of residual CD19^+/CD5^− B-lymphocytes [2]: resistant
- tumor growth compared to control mice (MEC-1 cells; NSG mice with MEC-1 tumors (FIG. 7)): reduction
- tumor glucose uptake (2-DG) compared to control mice (MEC-1 cells; NSG mice with MEC-1 tumors (FIG. 7C)): reduction
- time over which stable in human serum ([3]; 37° C. (FIG. 8)): ≥ 6 h
- degradation in human serum ([3]; 37° C., 6 h, HPLC 220 nm (FIG. 8)): not degradated
